The data set has as its system human breast cancer cell lines (MDA MB 231, MDA MB 435, MCF-7). Nature of the data set: Cytotoxic activity: cell proliferation (crystal violet staining) of human breast cancer cell lines. The procedure:
All human tumor cell lines were obtained from the American Type Culture Collection. Cells were grown as monolayers in IMEM containing 10% fetal bovine serum without antibiotics. The cells were maintained in a humidified, 5% CO2 atmosphere at 37° C.
After trypsinization, the cells were counted and adjusted to a concentration of 1,000-2,000 cells per 100 mL. Cell proliferation was determined by plating the cells (1,000-2,000 cells/well) in a 96 well microtiter plate. After addition of 100 μL cells per well, the cells were allowed to attach for 24 hours. […] The polyphenols were dissolved in media at a 2 fold concentration and 100 μL of each solution was added in triplicate wells. On consecutive days, the plates were stained with 50 μL crystal violet (2.5 g crystal violet dissolved in 125 mL methanol, 375 mL water), for 15 min. The stain was removed and the plate was gently immersed into cold water to remove excess stain. The washings were repeated two more times, and the plates allowed to dry. The remaining stain was solubilized by adding 100 μL of 0.1 M sodium citrate/50% ethanol to each well. After solubilization, the number of cells were quantitated on an ELISA plate reader at 540 nm (reference filter at 410 nm).
Error bars represent +/− standard deviation of three replicate measurements.

The mark [1] stands for this setting: breast cancer cell lines investigated, four days, various μg/mL concentrations, FIG. 1(a)-(d).

Entries after “also recorded” stand apart in the source; their conditions may differ. Read-outs that look alike come from different tables or passages of the source.

For the molecule `Oc1cc(O)c2c(c1)O[C@H](c1ccc(O)c(O)c1)[C@H](O)C2` [monomer (epicatechin), epicatechin, reference compound], the “cytotoxicity (cancer cell line growth at the end of four days as percent growth of the control)” value under setting [1] is listed as “no cytotoxicity”.

For the molecule `Oc1cc(O)c2c(c1)O[C@H](c1ccc(O)c(O)c1)[C@H](O)[C@H]2c1c(O)cc(O)c2c1O[C@H](c1ccc(O)c(O)c1)[C@H](O)C2` [synthetic epicatechin dimer, EC-(4β→8)-EC], the “cytotoxicity (cancer cell line growth at the end of four days as percent growth of the control)” value is reported as “no cytotoxicity”. As for `O=C(OC1Cc2c(O)cc(O)c(C3c4c(O)cc(O)c(C5c6c(O)cc(O)cc6OC(c6ccc(O)c(O)c6)C5OC(=O)c5cc(O)c(O)c(O)c5)c4OC(c4ccc(O)c(O)c4)C3OC(=O)c3cc(O)c(O)c(O)c3)c2OC1c1ccc(O)c(O)c1)c1cc(O)c(O)c(O)c1` (stereo not drawn) [synthetic epicatechin trimer trisgallate, [EC-3-O-galloyl-(4β→8)]2-EC-3-O-gallate], the “cytotoxicity (cancer cell line growth at the end of four days as percent growth of the control)” value under setting [1] was “cytotoxic effect equivalent to the pentamer and/or epigallocatechin gallate”. In addition, under “in vitro assessment of Example 25”, the “antineoplastic activity against several human breast cancer cell lines (comparison in words)” value is “activity equivalent to the pentamer; also recorded: greater antineoplastic activity when compared to the underivatized dimer and trimer”.

Values taken from patent US6420572B1, “Synthetic methods for preparation of protected proanthocyanidin(s)” (Mars, Incorporated, priority 1997, dated 2002).
